Publication PMC3608651, “A Broad Profile of Co-Dominant Epitopes Shapes the Peripheral Mycobacterium tuberculosis Specific CD8+ T-Cell Immune Response in South African Patients with Active Tuberculosis” (PLoS ONE, 2013)

Assays:
Type in all cases: binding
HLA-A*68:01 [1] = biological target: T1, HLA-A*68:01 (Homo sapiens, UniProt P04439, A269V/D185E/E176V/E277Q/E87N/F33Y/G231S/I121M/I166T/I218V/L180W/L300P/L318F/N151K/P208A/P217A/Q86R/R169H/T345S); conditions: time points 0-8 h
HLA-C*07:01 [2] = biological target: T2, HLA-C*07:01 (Homo sapiens, UniProt P10321, K90N/S123Y); test: affinity assay (ED50)
HLA-A*30:02 [3] = biological target: T3, HLA-A*30:02 (Homo sapiens, UniProt P04439, D101N/D140H/D185E/E176R/F33S/G80R/H175R/K168Q/Q94H/R138E/R41S/V100E); conditions: time points 0-8 h
HLA-A*02:01 [4] = biological target: T4, HLA-A*02:01 (Homo sapiens, UniProt P04439, D140Y/D185E/D98H/E176V/E277Q/G131W/G231S/I119V/I121R/I166T/I218V/L300P/L318F/N151K/N90K/P208A/P217A/Q86G/Q94H/R138H/R169H/T345S); conditions: percent relative the binding of positive control peptide […]; plate-bound monomer 0.5 µg/ml; duplicated experiments; positive binder >40%
HLA-A*30:01 [5] = biological target: T5, HLA-A*30:01 (Homo sapiens, UniProt P04439, D140H/D185E/E176W/F33S/G80R/H175R/K168Q/R138E/R41S); conditions: percent relative the binding of positive control peptide […]; duplicated experiments; positive binder >40%
HLA-B*07:02 [6] = biological target: T6, HLA-B*07:02 (Homo sapiens, UniProt P01889); test: affinity assay (ED50); conditions: peptide titrated 10−4 to 10−9 M
HLA-B*58:01 [7] = biological target: T7, HLA-B*58:01 (Homo sapiens, UniProt P01889, A329T/C349S/D201E/D98Y/E176V/E187L/E204Q/E69T/G107R/I218V/I90N/K202T/L105A/L119I/N104I/N87E/Q89R/Q94S/R106L/R155S/R180L/R86G/S101N/S121R/S35A/S48A/T118I/V127L/V306I/V36M/Y140S/Y91M); conditions: percent relative the binding of positive control peptide […]; duplicated experiments; positive binder >40%
HLA-A*30:02 [8] = biological target: T3, HLA-A*30:02; conditions: percent relative the binding of positive control peptide […]; duplicated experiments; positive binder >40%
HLA-A*68:01 [9] = biological target: T1, HLA-A*68:01
HLA-B*07:02 [10] = biological target: T6, HLA-B*07:02; test: off-rate assay (t1/2); conditions: time points 0-8 h
HLA-A*30:02 [11] = biological target: T3, HLA-A*30:02
HLA-C*07:01 [12] = biological target: T2, HLA-C*07:01; conditions: percent relative the binding of positive control peptide […]; duplicated experiments; positive binder >40%
HLA-B*07:02 [13] = biological target: T6, HLA-B*07:02; conditions: percent relative the binding of positive control peptide […]; duplicated experiments; positive binder >40%
HLA-A*68:01 [14] = biological target: T1, HLA-A*68:01; conditions: percent relative the binding of positive control peptide […]; duplicated experiments; positive binder >40%
HLA-A*24:02 [15] = biological target: T8, HLA-A*24:02 (Homo sapiens, UniProt P04439, D101N/D140Y/D185E/E176V/E190D/F33S/G103R/G107R/I119L/I121M/I306V/K335N/L105A/L180Q/L300P/N151K/N90K/Q86E/Q94H/R106L/R138H/R89G/T104I/T345S/V100E/W191G/Y123F); conditions: percent relative the binding of positive control peptide […]; duplicated experiments; positive binder >40%
HLA-A*02:01 [16] = biological target: T4, HLA-A*02:01; conditions: […]; peptide quantity for 50% binding saturation
HLA-C*07:01 [17] = biological target: T2, HLA-C*07:01; test: off-rate assay (t1/2); conditions: time points 0-8 h
HLA-A*02:01 [18] = biological target: T4, HLA-A*02:01; conditions: time points 0-8 h; time when 50% of peptide has dissociated
HLA-A*30:01 [19] = biological target: T5, HLA-A*30:01; test: affinity assay (ED50); conditions: peptide titrated 10−4 to 10−9 M
HLA-A*30:01 [20] = biological target: T5, HLA-A*30:01; test: off-rate assay (t1/2); conditions: time points 0-8 h
HLA-B*58:01 [21] = biological target: T7, HLA-B*58:01; conditions: time points 0-8 h
HLA-B*58:01 [22] = biological target: T7, HLA-B*58:01
HLA-A*24:02 [23] = biological target: T8, HLA-A*24:02
HLA-A*24:02 [24] = biological target: T8, HLA-A*24:02; conditions: time points 0-8 h

| Substance | O-rate A*68:01 (t1/2) (HLA-A*68:01 [1]) | O-rate A*30:02 (t1/2) (HLA-A*30:02 [3]) | Bind A*02:01 (HLA-A*02:01 [4]) | Bind A*30:01 (HLA-A*30:01 [5]) | Aff B*07:02 (ED50) (HLA-B*07:02 [6]) | Bind B*58:01 (HLA-B*58:01 [7]) | Bind A*30:02 (HLA-A*30:02 [8]) | Aff A*68:01 (ED50) (HLA-A*68:01 [9]) | O-rate B*07:02 (t1/2) (HLA-B*07:02 [10]) | Aff A*30:02 (ED50) (HLA-A*30:02 [11]) | Bind C*07:01 (HLA-C*07:01 [12]) | Bind B*07:02 (HLA-B*07:02 [13]) | Bind A*68:01 (HLA-A*68:01 [14]) | Bind A*24:02 (HLA-A*24:02 [15]) | Aff A*02:01 (ED50) (HLA-A*02:01 [16]) | O-rate A*02:01 (t1/2) (HLA-A*02:01 [18]) | Aff A*30:01 (ED50) (HLA-A*30:01 [19]) | O-rate A*30:01 (t1/2) (HLA-A*30:01 [20]) | O-rate B*58:01 (t1/2) (HLA-B*58:01 [21]) | Aff B*58:01 (ED50) (HLA-B*58:01 [22]) | other results |
| --- | --- | --- | --- | --- | --- | --- | --- | --- | --- | --- | --- | --- | --- | --- | --- | --- | --- | --- | --- | --- | --- |
| LSMAGSSAM | 132 min | 66 min | 72% | 0% | 3E -07 M | 0% | 79% | 1E -06 M | 156 min | 3E -06 M | 71% | 92% | 51% | 14% | 2e-07 M | 84 min |  |  |  |  | Aff C*07:01 (ED50) (HLA-C*07:01 [2]): 3E -06 M; O-rate C*07:01 (t1/2) (HLA-C*07:01 [17]): 72 min |
| WL S ANR AV K | 126 min |  | 13% | 179% | 2E -06 M | 1% | 6% | 2E -07 M | 42 min |  | 16% | 49% | 139% | 40% |  |  | 1E -06 M | 30 min |  |  |  |
| AAYHPQQFI | 228 min |  | 56% | 83% |  | 64% | 34% | 3E -05 M |  |  | 0% | 9% | 47% | 54% | 6E -07 M | 72 min | 2E -07 M | 30 min | 48 min | 4E -08 M |  |
| AMKGDLQSS |  | 120 min | 89% | 129% |  | 0% | 47% |  |  | 1E -07 M | 23% | 9% | 0% | 42% | 2E -07 M | 102 min | 2E -06 M | 30 min |  |  | Aff A*24:02 (ED50) (HLA-A*24:02 [23]): 400000 nM; O-rate A*24:02 (t1/2) (HLA-A*24:02 [24]): 18 min |
| YAGSLSALL |  | 54 min | 66% | 0% | 1e-05 M | 58% | 64% |  | 36 min | 2e-07 M | 19% | 41% | 13% | 81% |  |  |  |  | 42 min | 3E -08 M | Aff A*24:02 (ED50) (HLA-A*24:02 [23]): 1000 nM; O-rate A*24:02 (t1/2) (HLA-A*24:02 [24]): 72 min |
| MGRDIKVQF |  | 18 min | 0% | 0% | 8e-07 M | 61% | 61% |  | 18 min | 7e-08 M | 68% | 41% | 10% | 25% |  |  |  |  | 18 min | 3e-07 M | Aff C*07:01 (ED50) (HLA-C*07:01 [2]): 8e-08 M; O-rate C*07:01 (t1/2) (HLA-C*07:01 [17]): 12 min |
